Legend:
C5aR = C5aR (Homo sapiens, UniProt P21730); conditions: read-out: IC50, inhibition of C5a-induced human PMN migration; human PMNs, 10 nM C5a
Experimental: (§1) Migration of human, rat, and mouse PMNs was evaluated using a 48-well micro-chemotaxis chamber, as previously described (Bertini et al. [2004]). […] Fifty microliters of cell suspension (1.5 × 10^6/ml for human PMNs, 3.0 × 10^6/ml for rat and mouse PMNs) pre-incubated at 37 °C for 15 min in the presence or absence of different concentrations of DF3016A or vehicle was seeded in the upper compartment. The chamber was incubated at 37 °C in air with 5% CO2 for 45 min. At the end of incubation, filters containing migrated cells were removed, fixed, and stained with Diff-Quik, and five oil immersion fields at high magnification (×100; Zeiss microscope) were counted after sample coding.

mouse C5aR = mouse C5aR (Mus musculus, UniProt P30993); conditions: read-out: IC50, mouse C5aR (C5a-induced PMN migration); mouse PMNs, 10 nM mC5a
Chain of mouse C5aR (P30993 whole entry): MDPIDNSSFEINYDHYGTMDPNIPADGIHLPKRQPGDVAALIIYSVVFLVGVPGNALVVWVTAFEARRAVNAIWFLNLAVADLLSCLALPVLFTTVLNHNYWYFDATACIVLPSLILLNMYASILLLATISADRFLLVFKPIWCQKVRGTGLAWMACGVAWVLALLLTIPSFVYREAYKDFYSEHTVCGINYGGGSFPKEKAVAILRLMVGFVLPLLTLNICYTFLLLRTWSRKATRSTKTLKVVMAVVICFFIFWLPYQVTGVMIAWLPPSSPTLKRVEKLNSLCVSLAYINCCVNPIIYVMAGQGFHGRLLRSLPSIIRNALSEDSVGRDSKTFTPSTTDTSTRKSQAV
Experimental: (§2) Murine and rat PMNs were isolated from peritoneal cavities injected with 1.5 ml of 3% thioglycolate in saline to male Balb/c mice (20–25 g and 7–9 weeks of age, provided by Charles River, Calco, Italy) or with […] of 3% thioglycolate in saline to SD rat (370–450 g and 3–4 months of age provided by Charles River, UK). Four hours after injection, the animals were sacrificed by decapitation and peritoneal cavities were washed with saline. PMNs were recovered and centrifuged at 600×g for 10 min. The pellet was resuspended in Hank’s Balanced Salt Solution (HBSS); then the cells were counted using Türk’s solution and diluted at 3 × 10^6 cells/ml.
as §1

rat C5aR = rat C5aR (Rattus norvegicus, UniProt P97520); conditions: read-out: IC50, rat C5aR (C5a-induced PMN migration); rat PMNs, 10 nM rC5a
Chain of rat C5aR (P97520 whole entry): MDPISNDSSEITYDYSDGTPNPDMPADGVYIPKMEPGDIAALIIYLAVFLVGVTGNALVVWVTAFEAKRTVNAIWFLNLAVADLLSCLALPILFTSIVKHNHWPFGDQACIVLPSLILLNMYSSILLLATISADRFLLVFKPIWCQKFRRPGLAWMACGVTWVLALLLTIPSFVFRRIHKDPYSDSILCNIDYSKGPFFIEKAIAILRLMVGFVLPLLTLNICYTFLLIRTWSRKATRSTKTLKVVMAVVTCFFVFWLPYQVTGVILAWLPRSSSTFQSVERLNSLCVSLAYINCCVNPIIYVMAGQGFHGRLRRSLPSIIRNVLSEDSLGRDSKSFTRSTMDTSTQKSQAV
Experimental: as §2, §1

[1] = system: spontaneous cell migration; assay: Spontaneous PMN migration; type: cell-based
Experimental: (§8) Migration of human, rat, and mouse PMNs was evaluated using a 48-well micro-chemotaxis chamber, as previously described (Bertini et al. [2004]). […] The chamber was incubated at 37 °C in air with 5% CO2 for 45 min. At the end of incubation, filters containing migrated cells were removed, fixed, and stained with Diff-Quik, and five oil immersion fields at high magnification (×100; Zeiss microscope) were counted after sample coding.

[2] = system: PMN migration induced by CXCL8; assay: CXCL8-induced PMN migration; type: cell-based; conditions: up to 10 μM
Experimental: as §8

[3] = system: PMN migration induced by CXCL1; assay: CXCL1-induced PMN migration; type: cell-based; conditions: up to 10 μM
Experimental: as §8

[4] = system: PMN migration induced by CCL3; assay: CCL3-induced PMN migration; type: cell-based; conditions: up to 10 μM
Experimental: as §8

[5] = system: PMN migration induced by fMLP; assay: fMLP-induced PMN migration; type: cell-based; conditions: up to 10 μM
Experimental: as §8

[6] = system: PMN migration induced by CXCL12; assay: CXCL12-induced PMN migration; type: cell-based; conditions: up to 10 μM
Experimental: as §8

[7] = system: LPS-induced PGE2 accumulation; assay: LPS-induced PGE2 production in peritoneal murine macrophages; type: cell-based, mouse; conditions: up to 10 μM, LPS 1 μg/ml, 24 h
Experimental: Cells were placed at 1 × 10^6 ml^−1 in 96-well plates and non-adherent cells removed by gentle washing 2 h later. DF3016A was then added to adherent macrophages 20 min before adding lipopolysaccharide (LPS) (1 μg ml^−1). Control cells received vehicle at the appropriate dilution. Total prostaglandin E2 (PGE2) production was determined in the supernatant 24 h after LPS stimulation. PGE2 levels were measured by Enzyme Immunoassay (EIA) Kit (sensitivity 2.5 pg per well).

[8] = system: panel of GPCRs, enzymes, ion channels, transporters, and nuclear receptors (44 targets); assay: SafetyScreen44 Panel radioligand binding (Eurofins Cerep); conditions: 10 μM, triplicate
Experimental: DF3016A was tested in the SafetyScreen44 Panel performed at Eurofins Cerep SA (France) by radio ligand binding assays to assess the off-target activities towards a panel of GPCRs, enzymes, ion channels, transporters, and nuclear receptors. All selected targets are recommended by four major pharmaceutical companies (Bowes et al. [2012]). The compound was tested at a single concentration of 10 μM in triplicate.
DF3016A was dissolved in dimethyl sulfoxide (DMSO) to achieve 10 mM stock solution that was diluted with water/HBSS to a final concentration of 10 μM. Cell membrane homogenates (48 μg protein) were incubated for 60 min at 22 °C with the respective reference compound in the absence or presence of the test compound in a buffer containing 50 mM Tris-HCl (pH 7.4), 2 mM MgCl2, and 1 mM ethylene-diamine-tetra-acetic acid (EDTA). After incubation, the samples were filtered rapidly under vacuum through glass fiber filters (GF/B, Packard Instruments, Meriden, CT, USA) presoaked with 0.3% polyethyleneimine (PEI), and rinsed several times with ice-cold 50 mM Tris-HCl using a 96-sample cell harvester (Unifilter, Packard Instruments). The filters were dried, then counted for radioactivity in a scintillation counter (Topcount, Packard Instruments) using a scintillation cocktail (Microscint-O, Packard Instruments).

[9] = Rat plasma protein binding (rPPB); type: in vitro ADME
[10] = Rat brain tissue binding (rBTB); type: in vitro ADME
[11] = Rat oral pharmacokinetics; type: in vivo
[12] = system: cortical neurons exposed to OGD/R; conditions: 500 nM, 1 h OGD, 3 to 48 h of reperfusion
Experimental: DF3016A (500 nM) was added to the cortical neurons which were exposed to O2 and glucose deprivation with glucose-free Neurobasal in Hypoxia Chamber for Cell Culture (BioSpherix) at 5% CO2 atmosphere-[…]. O2 concentration was monitored by using a ProOx sensor controller, and the 0.03% O2 value was considered acceptable. Cells were incubated in this anaerobic chamber for 1 h and then removed from the anaerobic environment. […] Cells of control group were treated identically except that they were not exposed to OGD/R.

[13] = system: cortical neurons exposed to OGD/R; assay: AO/ET staining of live and dead neurons after OGD/R; type: cell-based, rat; conditions: 500 nM, OGD/R 3 h
Experimental: DF3016A (500 nM) was added to the cortical neurons which were exposed to O2 and glucose deprivation with glucose-free Neurobasal in Hypoxia Chamber for Cell Culture (BioSpherix) at 5% CO2 atmosphere-85% N2. O2 concentration was monitored by using a ProOx sensor controller, and the 0.03% O2 value was considered acceptable. Cells were incubated in this anaerobic chamber for 1 h and then removed from the anaerobic environment. […] Cells of control group were treated identically except that they were not exposed to OGD/R.
Images have been acquired through a fluorescent microscope combined with a Digital Color Camera.

[14] = system: Ca2+ influx in OGD/R neurons; assay: Fluo-4 NW calcium assay in OGD/R neurons; type: cell-based, rat; conditions: 500 nM, P < 0.001 OGD/R-DF vs OGD/R-UT
Experimental: Neuronal cells, grown on 96-well plates, were exposed to OGD/R and treated with 500 nM of DF3016A; growth media were removed, and 100 μl of the dye loading solution (F36206 Fluo-4 NW Calcium Assay Kit, Invitrogen) was added carefully to each well. Plates were incubated at 37 °C for 30 min and then at room temperature for an additional 30 min. […] Data were presented as the ratio between Ca^++ influx and neuronal viability.

C5aR gene expression = C5aR gene expression (qRT-PCR) in OGD/R neurons; type: cell-based, rat; conditions: 500 nM
Experimental: (§3) The total RNA, including microRNA (miRNA), from cells in cultures were extracted with Ribospin Kit (GenaAll) followed by Riboclear Plus Kit (GenaAll) to remove residual DNA according to the manufacturer’s protocols.
(§4) Total mRNA transcription (2μg/20 μl) was performed using High Capacity cDNA Reverse Transcription Kit (Applied Biosystems) and reverse transcription for MicroRNA (10 ng/15 μl) was performed using TaqMan MicroRNA Reverse Transcription Kit (Applied Biosystems).
(§5) The qPCR 20 μl/reactions for miR-181a (assay ID: hsa-miR-181a) and C5aR (assay ID: Rn02134203_s1) were conducted in triplicate using TaqMan® MicroRNA Assay Kit and TaqMan® Gene Expression Assays protocol (Applied Biosystems), respectively, following the manufacturer’s instructions. Reactions were performed using a Step One Plus Applied Biosystems thermocycler (Life Technologies) with the default protocol. Briefly, for each reaction 40 cycles of amplification with the following profile were performed: 95 °C for 10 min for the first cycle, followed by 40 cycles of 95 °C for 15 s, and 60 °C for 1 min.
(§6) Relative intensity of PCR-specific amplicons was calculated using the 2^−ΔΔCt method (Livak and Schmittgen [2001]). Beta-actin (assay ID: Rn00667869_m1) and U6 (assay ID: 001973) small nuclear RNA (snRNA) (Han et al. [2015]) were used as internal control to normalize the level of each transcript.

C5a protein level = assay: C5a protein release (ELISA) in OGD/R neurons; type: cell-based, rat; conditions: 500 nM
Experimental: (§7) Quantitative measurements of cellular proteins (C5a, TNF-α, IL-1β, and IL-6) in cell culture supernatants were determined by ELISA methods using Rat IL-6, Mouse TNFα, Rat IL-1β PicoKine™ ELISA Kits (Boster Biological Technology) and Rat C5a ELISA Kit (Elabscience Biotechnology Inc.) according to the manufacturer’s instructions. All tests were performed in triplicate.

TNF-α = TNF-α release (ELISA) in OGD/R neurons; type: cell-based, rat; conditions: 500 nM
Experimental: as §7

IL-1β = IL-1β release (ELISA) in OGD/R neurons; type: cell-based, rat; conditions: 500 nM
Experimental: as §7

miR-181a = miR-181a expression (qPCR) in OGD/R neurons; type: cell-based, rat; conditions: 500 nM, P < 0.001 OGD/R-DF vs OGD/R-UT
Experimental: as §3, §4, §5, §6

[15] = rat, in vivo, po, 30 mg/kg
Experimental: SD rats (370–450 g and 3–4 months of age at the time of testing) were purchased from Charles River, UK. All animals were housed in groups of three per room under controlled conditions of temperature (19 to 21 °C) and humidity (50%), and maintained on a 12-h light/dark cycle (lights on at 7 and lights off at 19 including a 30-min dawn/dusk lights increasing/dimming period, respectively). Animals had free access to rat chow pellets CRM (P) and water except during the experimental procedures. All animals were weighed immediately before the test. The test drug was administered orally at 30 mg/kg using saline solution (0.9% NaCl) as vehicle. […] Cardiac blood samples, 0.6 ml, were obtained and placed in EDTA-coated tubes. The tubes were spun at 13,000 rpm for 4 min and 100 μl of supernatant taken and immediately stored at − 80 °C prior to analysis. Plasma samples were analyzed by liquid chromatography–mass spectrometry (LC-MS/MS) following extraction by protein precipitation with internal standard in acetonitrile, and levels of parent measured against an extracted calibration curve of plasma samples spiked with test compound. The whole brain was harvested then placed in a plastic tube and immediately frozen at − 80 °C until required. Brain tissue were homogenized and analyzed by LC-MS/MS following extraction by protein precipitation, and levels of parent measured against an extracted calibration curve of brain homogenate samples spiked with the test compound. Total exposure levels of the test compound in brain and plasma at 2 h postdose were determined.

[16] = system: primary rat cortical neurons; assay: Neuronal viability (MTS), toxicity of DF3016A
Experimental: Neuronal cultures were prepared from cortices of 17–18-day-old Sprague-Dawley rat fetuses. Two pregnant rats, provided from Envigo RMS S.r.l. (Z.I. Azzida, 57–33,049 S. Pietro al Natisone, Udine Italy), were euthanized by exposition to a gradually rising concentration of CO2 and then decapitated. Rat brains were isolated using standard procedures, and after the elimination of meninges, the cortical tissues were dissociated by trituration and digestion with 20 U/ml papain (Invitrogen, Karlsruhe, Germany) for 30 min at 37 °C. Approximately 1 × 10^6 cells in 1 ml DMEM/F12 medium containing 0.2 mM Glutamax, 1% penicillin/streptomycin (Pen/Strep), 5% fetal bovine serum, and 5% horse serum were seeded into poly-D-lysine pretreated plates. […] Neurons were maintained in a humidified atmosphere (5% CO2/95% air) at 37 °C and used for experiments after 8–10 days in vitro.
DF3016A was dissolved in DMSO. The final concentration of DMSO in the medium was below 0.1%. […]
Quantifications of neuronal viability were assessed by MTS method using Cell Titer One Solution Cell Proliferation Assay (Promega Corporation Madison, WI, USA) based on 3-(4,5-dimethylthiazol-2-yl)-5-(3-carboxymethoxyphenil)-2-(4-sulfophenyl)-2H-tetrazolium (MTS) (dilution 1:10). Viable cells with active metabolism convert MTT into formazan, detected by absorbance measurements at 490 nm in a BioTeek Elx800 microplate reader.

Chain of C5aR (P21730 whole entry): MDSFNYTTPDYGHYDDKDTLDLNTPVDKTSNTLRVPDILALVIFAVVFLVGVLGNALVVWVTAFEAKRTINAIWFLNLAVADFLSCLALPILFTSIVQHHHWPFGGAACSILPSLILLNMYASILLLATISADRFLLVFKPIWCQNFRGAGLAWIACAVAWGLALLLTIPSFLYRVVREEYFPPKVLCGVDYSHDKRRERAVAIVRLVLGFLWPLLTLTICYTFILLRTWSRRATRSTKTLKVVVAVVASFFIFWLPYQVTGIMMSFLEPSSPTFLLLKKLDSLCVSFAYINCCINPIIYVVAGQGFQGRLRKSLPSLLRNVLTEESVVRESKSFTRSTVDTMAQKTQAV

CC(c1ccc(Nc2nc(C(F)(F)F)cs2)cc1)c1nnn[nH]1 (stereo not shown) [DF3016A] gave an IC50 (C5aR) of 50 nM, an IC50 (mouse C5aR) of 37 nM and an IC50 (rat C5aR) of 45 nM. For the same compound, the “Inhibition of spontaneous cell migration per se” value [1] was “did not inhibit”, the “Effect on PMN migration induced by CXCL8” value [2] was “no effect” and the “Effect on PMN migration induced by CXCL1” value [3] was “no effect”. For the same compound, the “Effect on PMN migration induced by CCL3” value [4] was “no effect”, the “Effect on PMN migration induced by fMLP” value [5] was “no effect” and the “Effect on PMN migration induced by CXCL12” value [6] was “no effect”. The “Effect on LPS-induced PGE2 accumulation” value [7] was “no effect”, the “Inhibition of the assayed receptors (off-target activities, 44 targets)” value [8] was “did not show any inhibition” and the “rPPB Fu (free plasma fraction)” value [9] was 0.7%. The “rBTB Fu (free brain fraction)” value [10] was 7.7%, the “Oral t1/2” value [11] was 6.1 h and the Rat bioavailability [11] was 69%. For the same compound, the “Effect on OGD/R-induced cell death (MTS)” value [12] was “significantly attenuated OGD/R-induced cell death”, the “Neuronal death by AO/ET staining” value [13] was “close to that of control” and the “Ca2+ influx in OGD/R neurons” value [14] was “significant reduction”. The “C5aR gene expression after OGD/R” value (C5aR gene expression) was “reverted C5aR gene expression to the control levels”, the “C5a protein level after OGD/R” value (C5a protein level) was “restored C5a protein level to not significant values compared to control” and the “TNF-α release after OGD/R” value (TNF-α) was “restoration of control conditions”. For the same compound, the “IL-1β release after OGD/R” value (IL-1β) was “restoration of control conditions”, the “miR-181a over-expression after OGD/R” value (miR-181a) was “completely attenuated” and the “Plasma Cmax” value [15] was 104,683 ± 8867 ng/mL. For the same compound, the “Kp (brain to plasma ratio)” value ([15]; 2 h) was 0.04, the “Kpuu (unbound brain to plasma ratio)” value ([15]; 2 h) was 0.44 and the “Mortality compared to the control” value ([16]; 10 nM to 5 μM, 24 h, MTS) was “no significant mortality”. The “Viability changes on longer treatment” value ([16]; 500 nM, 24, 48, and 72 h) was “without significant viability changes”.
